# Laboratory results taken from PubChem BioAssay AID2060491 (Molecular Pharmacology Branch, DTP, NCI, 2025).
# System: 857933-349-R-J2-PDC complex spheroids, viability
# Test: Anticancer human tumor 857933-349-R-J2-PDC patient-derived colon adenocarcinoma cell line growth inhibition [GQUAD]
# Details: for IC50: curve of first compound; for viability, T/C: stronger effect = lower value
# Summary of the method: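 Tumor cells were grown as complex spheroids with HUVEC endothelial cells and mesenchymal stem cells as stroma. G-quadruplex stabilizers were combined with targeted agents over half-log dilutions from near the clinical Cmax, or from 10 microM.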
# [1] = second compound 0.0316 µM, first compound 0.0316 µM
# [2] = second compound 0.0316 µM, first compound 0.1 µM
# [3] = second compound 0.0316 µM, first compound 0.316 µM
# [4] = second compound 0.0316 µM, first compound 1 µM
# [5] = second compound 0.0316 µM, first compound 3.16 µM
# [6] = second compound 0.0316 µM, first compound 10 µM
# [7] = second compound 0.1 µM, first compound 0.0316 µM
# [8] = second compound 0.1 µM, first compound 0.1 µM
# [9] = second compound 0.1 µM, first compound 0.316 µM
# [10] = second compound 0.1 µM, first compound 1 µM
# [11] = second compound 0.1 µM, first compound 3.16 µM
# [12] = second compound 0.1 µM, first compound 10 µM
# [13] = second compound 0.316 µM, first compound 0.0316 µM
# [14] = second compound 0.316 µM, first compound 0.1 µM
# [15] = second compound 0.316 µM, first compound 0.316 µM
# [16] = second compound 0.316 µM, first compound 1 µM
# [17] = second compound 0.316 µM, first compound 3.16 µM
# [18] = second compound 0.316 µM, first compound 10 µM
# [19] = second compound 1 µM, first compound 0.0316 µM
# [20] = second compound 1 µM, first compound 0.1 µM
# [21] = second compound 1 µM, first compound 0.316 µM
# [22] = second compound 1 µM, first compound 1 µM
# [23] = second compound 1 µM, first compound 3.16 µM
# [24] = second compound 1 µM, first compound 10 µM
# [25] = second compound 3.16 µM, first compound 0.0316 µM
# [26] = second compound 3.16 µM, first compound 0.1 µM
# [27] = second compound 3.16 µM, first compound 0.316 µM
# [28] = second compound 3.16 µM, first compound 1 µM
# [29] = second compound 3.16 µM, first compound 3.16 µM
# [30] = second compound 3.16 µM, first compound 10 µM
# [31] = second compound 10 µM, first compound 0.0316 µM
# [32] = second compound 10 µM, first compound 0.1 µM
# [33] = second compound 10 µM, first compound 0.316 µM
# [34] = second compound 10 µM, first compound 1 µM
# [35] = second compound 10 µM, first compound 3.16 µM
# [36] = second compound 10 µM, first compound 10 µM
# 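Also: spheroids exposed to compounds for one week before readout.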
# 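For viability, T/C in this document: percent viability relative to vehicle DMSO wells taken as 100%.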
structure (smiles),measurement,setting,value
C=CCn1c(=O)c2cnc(Nc3ccc(N4CCN(C)CC4)cc3)nc2n1-c1cccc(C(C)(C)O)n1 + Cc1cnc(CNC(=O)c2c(=O)c3ccc(N4CCCN(C)CC4)nc3n3c2sc2ccccc23)cn1,IC50,second compound 0.0316 µM,696 nM
same,IC50,second compound 0.1 µM,263 nM
same,IC50,second compound 0.316 µM,< 31.6 nM
same,IC50,second compound 1 µM,< 31.6 nM
same,IC50,second compound 3.16 µM,< 31.6 nM
same,IC50,second compound 10 µM,< 31.6 nM
same,"viability, T/C",[1],92.5%
same,"viability, T/C",[2],77.4%
same,"viability, T/C",[3],76.8%
same,"viability, T/C",[4],38.5%
same,"viability, T/C",[5],7.81%
same,"viability, T/C",[6],10.4%
same,"viability, T/C",[7],53.7%
same,"viability, T/C",[8],64.7%
same,"viability, T/C",[9],42.7%
same,"viability, T/C",[10],32%
same,"viability, T/C",[11],4.33%
same,"viability, T/C",[12],7.51%
same,"viability, T/C",[13],19.5%
same,"viability, T/C",[14],21.2%
same,"viability, T/C",[15],11.9%
same,"viability, T/C",[16],5.37%
same,"viability, T/C",[17],2.1%
same,"viability, T/C",[18],3.41%
same,"viability, T/C",[19],3.56%
same,"viability, T/C",[20],3.34%
same,"viability, T/C",[21],2.67%
same,"viability, T/C",[22],2.03%
same,"viability, T/C",[23],1.76%
same,"viability, T/C",[24],2.24%
same,"viability, T/C",[25],2.07%
same,"viability, T/C",[26],2.26%
same,"viability, T/C",[27],2.31%
same,"viability, T/C",[28],1.3%
same,"viability, T/C",[29],0.68%
same,"viability, T/C",[30],1.5%
same,"viability, T/C",[31],0.17%
same,"viability, T/C",[32],0.27%
same,"viability, T/C",[33],0.23%
same,"viability, T/C",[34],0.2%
same,"viability, T/C",[35],0.19%
same,"viability, T/C",[36],0.22%
CC(C)(O)C1CCC(Nc2ccc3ncc(-c4cccc(C(F)(F)F)c4)n3n2)CC1 (stereo not drawn) + Cc1cnc(CNC(=O)c2c(=O)c3ccc(N4CCCN(C)CC4)nc3n3c2sc2ccccc23)cn1,IC50,second compound 0.0316 µM,487 nM
same,IC50,second compound 0.1 µM,151 nM
same,IC50,second compound 0.316 µM,< 31.6 nM
same,IC50,second compound 1 µM,< 31.6 nM
same,IC50,second compound 3.16 µM,< 31.6 nM
same,IC50,second compound 10 µM,< 31.6 nM
same,"viability, T/C",[1],86.5%
same,"viability, T/C",[2],76%
same,"viability, T/C",[3],73.6%
same,"viability, T/C",[4],11.1%
same,"viability, T/C",[5],0.4%
same,"viability, T/C",[6],0.23%
same,"viability, T/C",[7],53.4%
same,"viability, T/C",[8],57.2%
same,"viability, T/C",[9],41.4%
same,"viability, T/C",[10],14%
same,"viability, T/C",[11],0.2%
same,"viability, T/C",[12],0.19%
same,"viability, T/C",[13],16.1%
same,"viability, T/C",[14],12.6%
same,"viability, T/C",[15],8.9%
same,"viability, T/C",[16],7.61%
same,"viability, T/C",[17],0.11%
same,"viability, T/C",[18],0.07%
same,"viability, T/C",[19],3.09%
same,"viability, T/C",[20],3%
same,"viability, T/C",[21],2.95%
same,"viability, T/C",[22],3.84%
same,"viability, T/C",[23],0.05%
same,"viability, T/C",[24],0.07%
same,"viability, T/C",[25],1.54%
same,"viability, T/C",[26],1.85%
same,"viability, T/C",[27],2.05%
same,"viability, T/C",[28],1.16%
same,"viability, T/C",[29],0.11%
same,"viability, T/C",[30],0.12%
same,"viability, T/C",[31],0.23%
same,"viability, T/C",[32],0.19%
same,"viability, T/C",[33],0.3%
same,"viability, T/C",[34],0.28%
same,"viability, T/C",[35],0.22%
same,"viability, T/C",[36],0.21%
Cc1[nH]c2ccccc2c1CCNCc1ccc(/C=C/C(=O)NO)cc1 + Cc1cnc(CNC(=O)c2c(=O)c3ccc(N4CCCN(C)CC4)nc3n3c2sc2ccccc23)cn1,IC50,second compound 0.0316 µM,267 nM
same,IC50,second compound 0.1 µM,155 nM
same,IC50,second compound 0.316 µM,< 0.999 nM
same,IC50,second compound 1 µM,< 0.999 nM
same,IC50,second compound 3.16 µM,< 0.999 nM
same,IC50,second compound 10 µM,< 0.999 nM
same,"viability, T/C","second compound 0.0316 µM, first compound 0.000999 µM",91%
same,"viability, T/C","second compound 0.0316 µM, first compound 0.00316 µM",93.7%
same,"viability, T/C","second compound 0.0316 µM, first compound 0.00999 µM",106%
same,"viability, T/C",[1],86.5%
same,"viability, T/C","second compound 0.0316 µM, first compound 0.0999 µM",93.8%
same,"viability, T/C",[3],42.5%
same,"viability, T/C","second compound 0.1 µM, first compound 0.000999 µM",51.7%
same,"viability, T/C","second compound 0.1 µM, first compound 0.00316 µM",65.6%
same,"viability, T/C","second compound 0.1 µM, first compound 0.00999 µM",65.6%
same,"viability, T/C",[7],77%
same,"viability, T/C","second compound 0.1 µM, first compound 0.0999 µM",75.5%
same,"viability, T/C",[9],22.2%
same,"viability, T/C","second compound 0.316 µM, first compound 0.000999 µM",20.1%
same,"viability, T/C","second compound 0.316 µM, first compound 0.00316 µM",27.2%
same,"viability, T/C","second compound 0.316 µM, first compound 0.00999 µM",28.9%
same,"viability, T/C",[13],47.6%
same,"viability, T/C","second compound 0.316 µM, first compound 0.0999 µM",37.1%
same,"viability, T/C",[15],3.64%
same,"viability, T/C","second compound 1 µM, first compound 0.000999 µM",4.8%
same,"viability, T/C","second compound 1 µM, first compound 0.00316 µM",4.9%
same,"viability, T/C","second compound 1 µM, first compound 0.00999 µM",6.18%
same,"viability, T/C",[19],9.89%
same,"viability, T/C","second compound 1 µM, first compound 0.0999 µM",5.17%
same,"viability, T/C",[21],0.17%
same,"viability, T/C","second compound 3.16 µM, first compound 0.000999 µM",2.36%
same,"viability, T/C","second compound 3.16 µM, first compound 0.00316 µM",3.21%
same,"viability, T/C","second compound 3.16 µM, first compound 0.00999 µM",2.34%
same,"viability, T/C",[25],1.12%
same,"viability, T/C","second compound 3.16 µM, first compound 0.0999 µM",0.55%
same,"viability, T/C",[27],0.15%
same,"viability, T/C","second compound 10 µM, first compound 0.000999 µM",0.3%
same,"viability, T/C","second compound 10 µM, first compound 0.00316 µM",0.24%
same,"viability, T/C","second compound 10 µM, first compound 0.00999 µM",0.43%
same,"viability, T/C",[31],0.42%
same,"viability, T/C","second compound 10 µM, first compound 0.0999 µM",0.37%
same,"viability, T/C",[33],0.26%
O=C(NO)c1cnc(N2CCN(S(=O)(=O)c3ccc4ccccc4c3)CC2)nc1 + Cc1cnc(CNC(=O)c2c(=O)c3ccc(N4CCCN(C)CC4)nc3n3c2sc2ccccc23)cn1,IC50,second compound 0.0316 µM,538 nM
same,IC50,second compound 0.1 µM,372 nM
same,IC50,second compound 0.316 µM,< 31.6 nM
same,IC50,second compound 1 µM,< 31.6 nM
same,IC50,second compound 3.16 µM,< 31.6 nM
same,IC50,second compound 10 µM,< 31.6 nM
same,"viability, T/C",[1],95.5%
same,"viability, T/C",[2],79.8%
same,"viability, T/C",[3],79.5%
same,"viability, T/C",[4],15.9%
same,"viability, T/C",[5],0.04%
same,"viability, T/C",[6],0.06%
same,"viability, T/C",[7],65%
same,"viability, T/C",[8],69.3%
same,"viability, T/C",[9],56%
same,"viability, T/C",[10],11.7%
same,"viability, T/C",[11],0.05%
same,"viability, T/C",[12],0.08%
same,"viability, T/C",[13],19.9%
same,"viability, T/C",[14],24.9%
same,"viability, T/C",[15],24.2%
same,"viability, T/C",[16],1.65%
same,"viability, T/C",[17],0.03%
same,"viability, T/C",[18],0.07%
same,"viability, T/C",[19],4.31%
same,"viability, T/C",[20],2.8%
same,"viability, T/C",[21],1.46%
same,"viability, T/C",[22],0.09%
same,"viability, T/C",[23],0.04%
same,"viability, T/C",[24],0.07%
same,"viability, T/C",[25],1.32%
same,"viability, T/C",[26],0.92%
same,"viability, T/C",[27],0.23%
same,"viability, T/C",[28],0.12%
same,"viability, T/C",[29],0.08%
same,"viability, T/C",[30],0.09%
same,"viability, T/C",[31],0.16%
same,"viability, T/C",[32],0.2%
same,"viability, T/C",[33],0.2%
same,"viability, T/C",[34],0.14%
same,"viability, T/C",[35],0.15%
same,"viability, T/C",[36],0.18%
